Laboratory results from US20100047231A1, “Immuno-Stimulant Combination for Prophylaxis and Treatment of Hepatitis C” (priority 2005, published 2010).

Experiments:
Type in all cases: in vivo
T1/HCVcon cells = experiment: Lythic activity of splenocytes from immunised HHD mice against T1/HCVcon cells (chromium release); conditions: 100 μg NS3 + poly(I:C) + anti-CD40, six days after immunisation, splenocytes stimulated five days with T1/HCVcon cells and IL-2 (FIG. 4)
Method: (§1) Groups of two mice were immunised via the i.p. route with 50 μg of anti-CD40. Four hours later, they were injected with 50 μg of poly(I:C) (i.v.) and different amounts of the antigens: NS3 protein or mixtures of NS3 with peptides (i.p.).
(§2) In order to measure the CTL responses, the splenocytes coming from the immunised animals were incubated with peptides (10 μM) for 2 h at 37° C., washed twice and cultured on 24-well plates with a confluence of 7.5×10^6 cells/well. In experiments conducted for measuring the recognition of T1/HCVcon cells, 7.5×10^6 splenocytes of HHD mice were cultured with 7.5×10^5 T1/HCVcon cells previously treated with Mitomycin C (Sigma). In all cases, two days later, 2.5 U/ml of IL-2 (Boehringer-Mannheim GmbH, Germany) was added to the wells and 5 days later the cells were recovered in order to carry out chromium release assays.
(§3) The lythic activity was measured by incubating different quantities of effector cells for 4 h with 3000 T2 target cells previously loaded with 51Cr, with and without peptide (target). […]
(§4) The specific lysis percentage was calculated according to the formula: […]
(§5) where the spontaneous lysis (measured as cpmspontaneous) corresponds to target cells incubated in the absence of effector cells, and the maximum lysis (cpmmaximum) is obtained by incubating target cells with 5% Tritonx100.

HHD mice [1] = experiment: IFN-γ production (ELISA) by splenocytes from immunised HHD mice stimulated with peptides or NS3; conditions: 100 μg NS3 + poly(I:C) + anti-CD40, two immunisations, sixty days after the second
Method: as §1
Splenic cells were resuspended in complete medium and plated at 8×10^5 cells/well in 0.2 ml on 96-well plates with U-shaped bottom, in the absence or presence of peptides or of the recombinant NS3 protein of the HCV.
Two days afterwards, the supernatants were collected for measuring the presence of IFN-γ by means of ELISA (BD-Pharmingen), following the manufacturer's instructions.

HHD mice [2] = experiment: Lythic activity of CTL (chromium release) of splenocytes from immunised HHD mice against peptide-loaded T2 target cells; conditions: 100 μg NS3 + poly(I:C) + anti-CD40, two immunisations, sixty days after the second (FIG. 5B)
Method: as §1, §2, §3, §4, §5

NS3 protein (SEQ. ID. NO: 2): Recombinant polypeptide with 635-amino-acid complete HCV NS3 sequence and His tail, expressed in E. coli; given with poly(I:C) and anti-CD40
Lysis of T1/HCVcon cells versus T1 control cells (T1/HCVcon cells): greater capacity to lyse T1 cells, which expressed proteins of the HCV
Lasting CD4+ response, IFN-γ production on stimulation with NS3 protein (HHD mice [1]; NS3 1 μg/ml, 48 h (FIG. 5C)): potent and lasting CD4+ responses
Lasting CD8+ response, production of IFN-γ on stimulation with peptide 1073 (HHD mice [1]; peptide 1073 10 μM, 48 h (FIG. 5A)): capable of producing large amounts of IFN-γ
Lasting CD8+ response, lythic activity against target cells loaded with peptide 1073 (HHD mice [2]): capable of lysing target cells pulsed with the peptide 1073
